Results on 2 compounds are retold here after patent US20130184308A1, “ACTIVATED BLOOD COAGULATION FACTOR X (FXa) INHIBITOR” (DAIICHI SANKYO COMPANY, LIMITED, priority 2008, published 2013).

Data set [1] concerns bleeding events. As to conditions: total knee arthroplasty patients; 5 mg to 60 mg oral once a day 11 to 14 days. The text has this: The implementation of this clinical trial conformed to the ethical research guidelines of the Declaration of Helsinki and secured the maximal human rights, welfare, and safety of the test subjects.
For data set [2], the system named is bleeding events. Here is the method: (§1) Moreover, secondary evaluations were performed for efficacy by the comparison of the incidence of thromboembolic events, pharmacodynamic indexes, and biomarkers, and for safety by the comparison of the incidences of adverse events and adverse reactions. […] In the group to which warfarin was administered, 0.5-mg and 1-mg warfarin tablets were used and orally administered once a day for 12 weeks as a rule at a dose that allowed PT-INR to be controlled to between 2.0 and 3.0 inclusive (for 70-year-old or older participants, between 1.6 and 2.6 inclusive).
(§2) The clinical trial was carried out by, after obtaining the consent of test subjects, conducting head diagnostic imaging before registration to confirm no bleeding observation, and conducting head diagnostic imaging (CT or MRI), transthoracic echocardiography, lead electrocardiography, blood pressure examination, pulse rate examination, and hematological/biochemical tests.
In the secondary analysis, the hypothesis (comparison) shown below was studied on the incidence of bleeding events using the one-sided Cochran-Armitage test at the 0.025 level of significance.
This clinical trial was carried out in conformity to the standards specified by Article 14 Paragraph 3 and Article 80-2 of the Pharmaceutical Affairs Law and MHW Ordinance No. 28 “Standards for the Implementation of Clinical Trials on Pharmaceutical Products” (Mar. 27, 1997; hereinafter, referred to as the GCP ordinance). The implementation of this clinical trial conformed to the ethical research guidelines of the Declaration of Helsinki and secured the maximal human rights, welfare, and safety of the test subjects. [Protocol No. of this clinical trial: DU-176b-C-J225_Ver.03.05.000].

In a further data set the test system is D-dimer. The data set can be described thus: Dose comparison study in non-valvular atrial fibrillation patients: biomarker D-dimer. As to conditions: 28 days after administration. The class given is in vivo, human. Here is the method: as §1, §2
(§3) The biomarkers F1+2 and TAT are markers of thrombin formation, while D-dimer is a marker of secondary fibrinolysis.

Data set [3] deals with F1+2, TAT, D-dimer. The data set can be described thus: Early phase II trials: biomarkers F1+2, TAT and D-dimer. The class given is in vivo, human.
Text: as §3

Data set [4] relates to F1+2, TAT, D-dimer. As to conditions: atrial fibrillation patients; anticoagulant therapy (N. Vene et al., Thromb Haemost 2003); cited from earlier work.
Where [5] appears, read: NVAF patients, 30 mg, 45 mg, 60 mg oral once a day 12 weeks.

Where two headings read alike, the source gives them in different places.

Take `CN1CCc2nc(C(=O)N[C@@H]3C[C@@H](C(=O)N(C)C)CC[C@@H]3NC(=O)C(=O)Nc3ccc(Cl)cn3)sc2C1.Cc1ccc(S(=O)(=O)O)cc1` [compound (1a), N^1-(5-chloropyridin-2-yl)-N^2-((1S,2R,4S)-4-[(dimethylamino)carbonyl]-2-{[(5-methyl-4,5,6,7-tetrahydrothiazolo[5,4-c]pyridin-2-yl)carbonyl]amino}cyclohexyl)ethanediamide p-toluenesulfonate monohydrate]: in the data set with bleeding events [1], the “incidence of bleeding events compared with placebo group” value is on record as “did not differ from that in the group to which the placebo had been administered” and the “number of bleeding events” value was “increased in a manner dependent on the dose”. For the same compound, in the data set on bleeding events [2] (NVAF patients that received compound (1a)), the “incidence of bleeding events in four groups divided by BW (60 kg) and Ccr (50)” value is given as “highest incidence of bleeding events was obtained in the group of (4) BW≦60 kg, Ccr≦50”. Besides, in the data set on bleeding events [2] (setting [5]), the “incidence of bleeding events (major, clinically relevant non-major, minor), dose response” value is recorded as “increased as the dose of the compound (1a) got higher” and the “incidence of bleeding events compared with warfarin group” value is recorded as “no significant difference”. Besides, the “incidence of bleeding events, Ccr≦50 versus Ccr>50” value in the data set on bleeding events [2] (NVAF patients, 45 mg/kg or higher (so in the source)) is “higher in the group to which compound (1a) had been administered involving the test subjects having creatinine clearance (Ccr) of Ccr≦50”. Further, the “incidence of bleeding events, BW≦60 kg versus BW>60 kg” value with bleeding events [2] (NVAF patients, dose of 45 mg/kg or higher (so in the source)) is “higher in the group to which compound (1a) had been administered involving the test subjects having a body weight (BW) of BW≦60 kg”. Further, the “D-dimer (secondary fibrinolysis biomarker)” value in the data set on D-dimer (NVAF patients, compared with warfarin) is listed as “comparable to that of warfarin”. In addition, in the data set on D-dimer (test subjects having no history of warfarin administration, compared with warfarin-administered patients), the “D-dimer (secondary fibrinolysis biomarker)” value is given as “comparable to that of warfarin-administered patients”. In the data set with F1+2, TAT, D-dimer [3], the “levels of biomarkers F1+2, TAT and D-dimer” value is recorded as “reduce the levels of these biomarkers”.
Consider `CC(=O)CC(c1ccccc1)c1c(O)c2ccccc2oc1=O` (centres unmarked) [warfarin, warfarin potassium], for which the “levels of biomarkers F1+2, TAT and D-dimer” value in the data set with F1+2, TAT, D-dimer [4] is on record as “decreased by anticoagulant therapy using warfarin”.
